# Measured values reported in paper PMC11129975, “A first-in-human phase I study of TAS-117, an allosteric AKT inhibitor, in patients with advanced solid tumors” (Cancer Chemotherapy and Pharmacology, 2024).
# Columns and labels:
# NCI-N87 = settings: oral dosing; NCI-N87 (HER2 amplification); cited from earlier work
# [1] = test system: advanced or metastatic solid tumors; assay: Antitumor activity, best overall response by RECIST version 1.1; format: in vivo, human
# Procedure: The phosphorylation status of PRAS40 in the blood was measured with an electrochemiluminescence detection assay using a Meso Scale Discovery instrument (Meso Scale Diagnostics, Rockville, MD, US). For efficacy, solid tumors were assessed using Response Evaluation Criteria in Solid Tumors (RECIST; version 1.1).
# AKT = assay: Ratio of pPRAS40/total PRAS40 in platelet-rich plasma (electrochemiluminescence); format: in vivo, human; settings: at any time point; DEP, RMP and SAP; dose levels 2 to 5 (8 to 32 mg/body/day)
# Procedure: Blood samples for pharmacokinetic analysis were collected immediately prior to dosing (0 h) and at 0.5, 1, 2, 3, 4, 6, 8, 12, and 24 h post-dose on Day 1 and Day 21 of Cycle 1 for patients in the DEP (QD dosing). For patients who received intermittent dosing regimens, blood was collected immediately prior to dosing (0 h) and at 1, 2, 3, 4, 6, 8, 10, and 24 h post-dose on Cycle 1 Day 1; immediately prior to dosing (0 h) on Cycle 1 Days 3, 4, and 8; and immediately prior to dosing (0 h) and at 1, 2, 3, 4, 6, 8, 10, 24, 48, and 96 h post-dose on Cycle 1 Day 18. […]
# The pharmacodynamic activity of TAS-117 for AKT inhibition was evaluated by the change in the ratio of pPRAS40 (threonine 246) to total PRAS40 in platelet-rich plasma samples before and after TAS-117 administration. The phosphorylation status of PRAS40 in the blood was measured with an electrochemiluminescence detection assay using a Meso Scale Discovery instrument (Meso Scale Diagnostics, Rockville, MD, US). For efficacy, solid tumors were assessed using Response Evaluation Criteria in Solid Tumors (RECIST; version 1.1). Computed tomography scans were evaluated at baseline, every 6 weeks after initiating TAS-117 administration, and at the time of study discontinuation.
# [2] = RMP (intermittent dosing) Level 4 (24 mg) n = 6
# [3] = RMP (intermittent dosing) Level 5 (32 mg) n = 4
# [4] = SAP (intermittent dosing) Cohort 1 Level 4 n = 16
# [5] = SAP (intermittent dosing) Cohort 2 Level 4 n = 7
# [6] = SAP (intermittent dosing) Cohort 3 Level 4 n = 20
smiles,measurement,setting,value
C[C@]1(O)C[C@@](N)(c2ccc(-c3nc4n(c3-c3ccccc3)COc3ccncc3-4)cc2)C1 [TAS-117],Antitumor activity,NCI-N87,demonstrated single-agent antitumor activity
same,Best overall response: CR,[1]; DEP (QD) Level 1 (4 mg) n = 2,0 n (%)
same,Best overall response: NE,[1]; DEP (QD) Level 1 (4 mg) n = 2,0 n (%)
same,Best overall response: Non-CR/non-PD,[1]; DEP (QD) Level 1 (4 mg) n = 2,0 n (%)
same,Best overall response: PD,[1]; DEP (QD) Level 1 (4 mg) n = 2,2 (100.0) n (%)
same,Best overall response: PR,[1]; DEP (QD) Level 1 (4 mg) n = 2,0 n (%)
same,Best overall response: SD,[1]; DEP (QD) Level 1 (4 mg) n = 2,0 n (%)
same,DCR (CR + PR + SD + non-CR/non-PD),[1]; DEP (QD) Level 1 (4 mg) n = 2,0 n (%)
same,RR (CR + PR),[1]; DEP (QD) Level 1 (4 mg) n = 2,0 n (%)
same,Best overall response: CR,[1]; DEP (QD) Level 2 (8 mg) n = 1,0 n (%)
same,Best overall response: NE,[1]; DEP (QD) Level 2 (8 mg) n = 1,0 n (%)
same,Best overall response: Non-CR/non-PD,[1]; DEP (QD) Level 2 (8 mg) n = 1,0 n (%)
same,Best overall response: PD,[1]; DEP (QD) Level 2 (8 mg) n = 1,0 n (%)
same,Best overall response: PR,[1]; DEP (QD) Level 2 (8 mg) n = 1,0 n (%)
same,Best overall response: SD,[1]; DEP (QD) Level 2 (8 mg) n = 1,1 (100.0) n (%)
same,DCR (CR + PR + SD + non-CR/non-PD),[1]; DEP (QD) Level 2 (8 mg) n = 1,1 (100.0) n (%)
same,RR (CR + PR),[1]; DEP (QD) Level 2 (8 mg) n = 1,0 n (%)
same,Best overall response: CR,[1]; DEP (QD) Level 3 (16 mg) n = 6,0 n (%)
same,Best overall response: NE,[1]; DEP (QD) Level 3 (16 mg) n = 6,0 n (%)
same,Best overall response: Non-CR/non-PD,[1]; DEP (QD) Level 3 (16 mg) n = 6,0 n (%)
same,Best overall response: PD,[1]; DEP (QD) Level 3 (16 mg) n = 6,6 (100.0) n (%)
same,Best overall response: PR,[1]; DEP (QD) Level 3 (16 mg) n = 6,0 n (%)
same,Best overall response: SD,[1]; DEP (QD) Level 3 (16 mg) n = 6,0 n (%)
same,DCR (CR + PR + SD + non-CR/non-PD),[1]; DEP (QD) Level 3 (16 mg) n = 6,0 n (%)
same,RR (CR + PR),[1]; DEP (QD) Level 3 (16 mg) n = 6,0 n (%)
same,Best overall response: CR,[1]; DEP (QD) Level 4 (24 mg) n = 3,0 n (%)
same,Best overall response: NE,[1]; DEP (QD) Level 4 (24 mg) n = 3,0 n (%)
same,Best overall response: Non-CR/non-PD,[1]; DEP (QD) Level 4 (24 mg) n = 3,0 n (%)
same,Best overall response: PD,[1]; DEP (QD) Level 4 (24 mg) n = 3,2 (66.7) n (%)
same,Best overall response: PR,[1]; DEP (QD) Level 4 (24 mg) n = 3,0 n (%)
same,Best overall response: SD,[1]; DEP (QD) Level 4 (24 mg) n = 3,1 (33.3) n (%)
same,DCR (CR + PR + SD + non-CR/non-PD),[1]; DEP (QD) Level 4 (24 mg) n = 3,1 (33.3) n (%)
same,RR (CR + PR),[1]; DEP (QD) Level 4 (24 mg) n = 3,0 n (%)
same,Best overall response: CR,[1]; [2],0 n (%)
same,Best overall response: NE,[1]; [2],0 n (%)
same,Best overall response: Non-CR/non-PD,[1]; [2],0 n (%)
same,Best overall response: PD,[1]; [2],4 (66.7) n (%)
same,Best overall response: PR,[1]; [2],0 n (%)
same,Best overall response: SD,[1]; [2],2 (33.3) n (%)
same,DCR (CR + PR + SD + non-CR/non-PD),[1]; [2],2 (33.3) n (%)
same,RR (CR + PR),[1]; [2],0 n (%)
same,Best overall response: CR,[1]; [3],0 n (%)
same,Best overall response: NE,[1]; [3],0 n (%)
same,Best overall response: Non-CR/non-PD,[1]; [3],0 n (%)
same,Best overall response: PD,[1]; [3],4 (100.0) n (%)
same,Best overall response: PR,[1]; [3],0 n (%)
same,Best overall response: SD,[1]; [3],0 n (%)
same,DCR (CR + PR + SD + non-CR/non-PD),[1]; [3],0 n (%)
same,RR (CR + PR),[1]; [3],0 n (%)
same,Patients with confirmed partial response,[1]; SAP,Four patients
same,Best overall response: CR,[1]; [4],0 n (%)
same,Best overall response: NE,[1]; [4],0 n (%)
same,Best overall response: Non-CR/non-PD,[1]; [4],0 n (%)
same,Best overall response: PD,[1]; [4],5 (31.3) n (%)
same,Best overall response: PR,[1]; [4],1 (6.3) n (%)
same,Best overall response: SD,[1]; [4],10 (62.5) n (%)
same,DCR (CR + PR + SD + non-CR/non-PD),[1]; [4],11 (68.8) n (%)
same,RR (CR + PR),[1]; [4],1 (6.3) n (%)
same,Best overall response: CR,[1]; [5],0 n (%)
same,Best overall response: NE,[1]; [5],0 n (%)
same,Best overall response: Non-CR/non-PD,[1]; [5],0 n (%)
same,Best overall response: PD,[1]; [5],1 (14.3) n (%)
same,Best overall response: PR,[1]; [5],0 n (%)
same,Best overall response: SD,[1]; [5],6 (85.7) n (%)
same,DCR (CR + PR + SD + non-CR/non-PD),[1]; [5],6 (85.7) n (%)
same,RR (CR + PR),[1]; [5],0 n (%)
same,Best overall response: CR,[1]; [6],0 n (%)
same,Best overall response: NE,[1]; [6],0 n (%)
same,Best overall response: Non-CR/non-PD,[1]; [6],0 n (%)
same,Best overall response: PD,[1]; [6],12 (60.0) n (%)
same,Best overall response: PR,[1]; [6],3 (15.0) n (%)
same,Best overall response: SD,[1]; [6],5 (25.0) n (%)
same,DCR (CR + PR + SD + non-CR/non-PD),[1]; [6],8 (40.0) n (%)
same,RR (CR + PR),[1]; [6],3 (15.0) n (%)
same,Confirmed PR,"[1]; SAP cohort 1 (endometrial cancer with PIK3CA mutation), 1 of 16 patients",6.3%
same,DCR,[1]; SAP cohort 2,85.7%
same,DCR,[1]; SAP cohort 3,40.0%
same,Confirmed PR,"[1]; SAP cohort 3 (ovarian clear cell carcinoma), 3 of 20 patients",15.0%
same,DCR,"[1]; SAP, cohort 1",68.8%
same,Best overall response: CR,[1]; Total N = 65,0 n (%)
same,Best overall response: NE,[1]; Total N = 65,0 n (%)
same,Best overall response: Non-CR/non-PD,[1]; Total N = 65,0 n (%)
same,Best overall response: PD,[1]; Total N = 65,36 (55.4) n (%)
same,Best overall response: PR,[1]; Total N = 65,4 (6.2) n (%)
same,Best overall response: SD,[1]; Total N = 65,25 (38.5) n (%)
same,DCR (CR + PR + SD + non-CR/non-PD),[1]; Total N = 65,29 (44.6) n (%)
same,RR (CR + PR),[1]; Total N = 65,4 (6.2) n (%)
same,DCR,[1]; dose level 2 in the DEP,100%
same,Reduction in the level of pPRAS40,AKT,> 50%
